Patent US6759403B2, “Metalloporphyrins and their uses as radiosensitizers for radiation therapy” (Brookhaven Science Associates, LLC, priority 2001, dated 2004)

What was measured:
EMT-6 mammary carcinomas [1] = assay: Boron biodistribution in mice with EMT-6 tumors of the dorsal thorax (Example 2); format: in vivo, BALB/c mice; conditions: 186 μg CuTCPBr/g body weight total, 6 ip injections over 2 days; 4 days after last injection
Method: Five BALB/c mice bearing subcutaneously implanted EMT-6 mammary carcinomas on the dorsal thorax were given a total dose of 186 μg CuTCPBr/g body weight in 6 intraperitoneal (ip) injections over a period of 2 days. Four days after the last injection mice were euthanized and the average boron concentrations (μg/g wet tissue) were measured for different types of tissue.

EMT-6 leg tumors = assay: Boron biodistribution in mice with subcutaneous EMT-6 leg tumors (Example 3); format: in vivo, BALB/c mice; conditions: for Boron Concentration, Blood / Boron Concentration, Liver / Boron concentration, Cerebrum / Boron concentration, Ears / Boron Concentration, Tumor: 156 μg CuTCPBr/gbw over 2 days; for Boron Concentration, Tumor / Tumor boron concentration normalized to the dose of the first study: leg tumor; for Tumor boron concentration normalized to the dose of the first study: normalized from 156 to 186 μg/g dose
Method: In this example, BALB/c mice bearing subcutaneous EMT-6 leg tumors were given 156 μg CuTCPBr/gbw in a volume of 0.01 mL/gbw/injection over a period of 2 days.
There is a larger vascular system surrounding the dorsal thorax compared with the leg, which may be a factor. However, in the case of CuTCPH, the boron concentration was 30% higher in leg tumors compared to back tumors. Normalizing to the slightly higher dose of the first study, the tumor boron concentration should be about 29 and 15 μg/g at 2d and 5d, respectively, which are still low. Studies are underway to repeat these experiments.

EMT-6 mammary carcinomas [2] = assay: Biodistribution study of CuTCPBr in mice with EMT-6 mammary carcinomas on the back (Example 5); format: in vivo, BALB/c mice; conditions: for Boron Concentration, Tumor / Boron Concentration, Blood / Boron Concentration, Brain / Boron Concentration, Ears (skin) / Boron Concentration, Liver / Boron Concentration, Spleen / Boron Concentration, Tongue: 6 ip injections over 2 days
Method: Two groups of seven (7) BALB/c mice bearing EMT-6 mammary carcinomas on the back were given CuTCPBr at a dose of 432 μg/g body weight (94 μg B/gbw) in six intraperitoneal injections over two days. Two days after the last injection, the mice in one group were euthanized and the boron concentrations in various tissues were measured. Four days after the last injection, the same procedure was carried out on the second group of mice. The average boron concentrations (mean with standard deviation in parentheses) for the two groups of mice injected with CuTCPBr are listed in the second and third columns of Table 4.
The tumor to blood boron concentration ratio after two days was approximately 8:1 and after four days it increased to 232:1. The tumor to brain boron concentration ratio after two days was approximately 197:1 and after four days it increased to 225:1.

[3] = test system: subcutaneous 9L gliosarcomas; assay: Boron biodistribution after intravenous infusion in rat 9L gliosarcoma model (Examples 6 and 7); format: in vivo, Fischer 344 rats
Method: This example used the experimental rat 9L gliosarcoma model and the protocol used to administer porphyrins by intravenous infusion that were reported in J. NeuroOncol, 52, 111-117, 2001. Six (6) male Fischer 344 rats bearing subcutaneous 9L gliosarcomas were infused intravenously with CuTCPBr at a total dose of 220 μg/gbw over 48 hours. Tumor and blood were sampled from each at zero, one, two and three days after the end of infusion and the boron concentrations measured. In this example, the biodistribution of CuTCPBr was compared to CuTCPH. A group of six (6) male Fischer 344 rats bearing subcutaneous 9L gliosarcomas were infused intravenously with CuTCPBr at a total dose of 220 μg/gbw over 48 hours. A second group of four (4) male Fischer 344 rats bearing subcutaneous 9L gliosarcomas were infused intravenously with CuTCPH at a total dose of 195 μg/gbw. over 48 hours. Boron concentrations in tissues from both groups of rats were taken three days after the end of infusion. The results for the CuTCPBr group of rats are listed in column 2 of Table 6 and the results for the CuTCPH group of rats are listed in column 4 of Table 6. To account for the difference in porphyrin dose (195 μg/gbw for CuTCPH versus 220 μg/gbw for CuTCPBr) and the difference in % boron in each porphyrin (31.8% for CuTCPH versus 21.7 for CuTCPBr), the boron concentrations in tissues from rats given CuTCPBr were normalized so that they would be equivalent to the boron concentrations of rats given CuTCPH. This was done by multiplying the boron concentrations in the CuTCPBr group of rats by the CuTCPBr to CuTCPH boron dose ratio of 1.3. The normalized boron concentrations for the CuTCPBr group of rats are listed in column 3 of Table 6.

[4] = Toxicity observation during and after porphyrin administration and at necropsy (Examples 2 and 3); format: in vivo; conditions: Examples 2 and 3 (186 or 156 μg CuTCPBr/g)
Source text: Toxicity is the critical factor, and since no toxicity was observed, the dose can be increased to achieve tumor boron concentrations higher than those in Examples 2 and 3.

[5] = CuTCPBr 432 μg/g body weight, after 2 days
[6] = CuTCPBr 432 μg/g body weight, after 4 days
[7] = 220 μg/gbw CuTCPBr (47.7 μg B/gbw) iv over 48 hours, 3 days after end of infusion
[8] = CuTCPBr 220 μg/gbw iv infusion over 48 hours, 0 days after end of infusion
[9] = CuTCPBr 220 μg/gbw iv infusion over 48 hours, 1 day after end of infusion
[10] = CuTCPBr 220 μg/gbw iv infusion over 48 hours, 2 days after end of infusion
[11] = CuTCPBr 220 μg/gbw iv infusion over 48 hours, 3 days after end of infusion
[12] = normalized to boron dose 61.8 μg B/gbw (x1.3), 3 days after end of infusion

## copper octabromotetracarboranylphenylporphyrin [CuTCPBr]
EMT-6 mammary carcinomas [1]
  Boron Concentration, Blood: 0.6 ± 0.2 μg B/g wet tissue
  Boron Concentration, Brain: 0.5 ± 0.1 μg B/g wet tissue
  Boron Concentration, Liver: 272 ± 93 μg B/g wet tissue
  Boron Concentration, Tumor: 84 ± 15 μg B/g wet tissue
EMT-6 leg tumors; 2 days after last injection
  Boron Concentration, Blood: 0.2 ± 0.1 µg/g
  Boron Concentration, Liver: 271 ± 40 µg/g
  Boron concentration, Cerebrum: 0 ± 0.1 µg/g
  Boron concentration, Ears: 1 ± 1 µg/g
  Boron Concentration, Tumor: 24 ± 11 µg/g
EMT-6 leg tumors; 5 days after last injection
  Boron Concentration, Blood: 0.1 ± 0.1 µg/g
  Boron Concentration, Liver: 308 ± 40 µg/g
  Boron concentration, Cerebrum: 0.6 ± 1 µg/g
  Boron concentration, Ears: 0.6 ± 0.7 µg/g
  Boron Concentration, Tumor: 13 ± 6 µg/g
EMT-6 leg tumors; 2d
  Tumor boron concentration normalized to the dose of the first study: about 29 μg/g
EMT-6 leg tumors; 5d
  Tumor boron concentration normalized to the dose of the first study: ~15 µg/g
EMT-6 mammary carcinomas [2]; CuTCPBr 432 μg/g body weight (94 μg B/gbw), after 2 days
  Boron Concentration, Tumor: 256 (51) μg/g
EMT-6 mammary carcinomas [2]; [5]
  Boron Concentration, Blood: 30 (12) μg/g
  Boron Concentration, Brain: 1.3 (0.4) μg/g
  Boron Concentration, Ears (skin): 16 (4.3) μg/g
  Boron Concentration, Liver: 831 (102) μg/g
  Boron Concentration, Spleen: 507 (60) μg/g
  Boron Concentration, Tongue: 43 (4.1) μg/g
EMT-6 mammary carcinomas [2]; [6]
  Boron Concentration, Blood: 0.8 (0.2) μg/g
  Boron Concentration, Brain: 0.7 (0.1) μg/g
  Boron Concentration, Ears (skin): 12 (1.6) μg/g
  Boron Concentration, Liver: 592 (24) μg/g
  Boron Concentration, Spleen: 336 (40) μg/g
  Boron Concentration, Tongue: 37 (4.0) μg/g
  Boron Concentration, Tumor: 180 (27) μg/g
EMT-6 mammary carcinomas [2]; CuTCPBr 432 μg/g body weight, indicates faster clearance time
  decrease of liver boron from two to four days: 29%
[3]; [7]
  Boron Concentration, Brain: 0.4 (0) μg/g
  Boron Concentration, Kidney: 11 (1) μg/g
  Boron Concentration, Lacrimal Gland: 28 (13) μg/g
  Boron Concentration, Liver: 477 (25) μg/g
  Boron Concentration, Lung: 123 (42) μg/g
  Boron Concentration, Lymph Nodes: 202 (32) μg/g
  Boron Concentration, Parotid Gland: 85 (36) μg/g
  Boron Concentration, Spinal Cord: 0.9 (0.4) μg/g
  Boron Concentration, Spleen: 632 (41) μg/g
  Boron Concentration, Submaxillary Gland: 68 (8) μg/g
  Boron Concentration, Tongue: 30 (3) μg/g
  Boron concentration, Ears: 8.4 (1.2) μg/g
[3]; CuTCPBr 220 μg/gbw (47.7 μg B/gbw) iv infusion over 48 hours, 3 days after end of infusion
  Boron Concentration, Tumor: 52 (19) μg/g
[3]; [8]
  Boron Concentration, Blood: 360 (30) μg/g
  Boron Concentration, Tumor: 67 (26) μg/g
  Tumor to Blood Ratio (boron): 0.19
[3]; [9]
  Boron Concentration, Blood: 150 (20) μg/g
  Boron Concentration, Tumor: 64 (17) μg/g
  Tumor to Blood Ratio (boron): 0.43
[3]; [10]
  Boron Concentration, Blood: 23 (7) μg/g
  Boron Concentration, Tumor: 75 (34) μg/g
  Tumor to Blood Ratio (boron): 3.3
[3]; [11]
  Boron Concentration, Blood: 1.4 (0.1) μg/g
  Tumor to Blood Ratio (boron): 38
[3]; [12]
  Boron Concentration, Brain, CuTCPBr Normalized: 0.5 µg/g
  Boron Concentration, Ears, CuTCPBr Normalized: 11 µg/g
  Boron Concentration, Kidney, CuTCPBr Normalized: 14 µg/g
  Boron Concentration, Lacrimal Gland, CuTCPBr Normalized: 37 µg/g
  Boron Concentration, Liver, CuTCPBr Normalized: 623 µg/g
  Boron Concentration, Lung, CuTCPBr Normalized: 161 µg/g
  Boron Concentration, Lymph Nodes, CuTCPBr Normalized: 264 µg/g
  Boron Concentration, Parotid Gland, CuTCPBr Normalized: 111 µg/g
  Boron Concentration, Spinal Cord, CuTCPBr Normalized: 1.2 µg/g
  Boron Concentration, Spleen, CuTCPBr Normalized: 825 µg/g
  Boron Concentration, Submaxillary Gland, CuTCPBr Normalized: 89 µg/g
  Boron Concentration, Tongue, CuTCPBr Normalized: 39 µg/g
  Boron Concentration, Tumor, CuTCPBr Normalized: 68 µg/g
[3]; rats, 220 μg/gbw CuTCPBr or 195 μg/gbw CuTCPH iv over 48 hours
  Toxicity: does not appear to be a major problem
[4]
  tissues at necropsy: all tissues appeared normal
[4]; during and after porphyrin administration
  toxic effects, physically or behaviorally: no toxic effects were noted
